pIC50: −log10 of the molar value.
Molecular target: CXCR3 (Macaca fascicularis, UniProt A0A2K5UV19)
Experiment: functional cellular assay measuring calcium flux in CXCR3 transfected cells (block of CXCR3/IP-10 interaction)
Assay type: cell-based
Conditions: IP-10 induced intracellular calcium flux; Cyno-CHO cells stably expressing recombinant CXCR3 and G-alpha-16
Description: Compounds are assessed for the ability to block the interaction of CXCR3 and IP-10 in a functional cellular assay measuring calcium flux in CXCR3 transfected cells.
Cyno-CHO cells, stably expressing recombinant CXCR3 and G-alpha-16 are grown in F12 medium (Mediatech #45000-360) supplemented with 10% (V/V) FBS (Mediatech #35-01500), 1% Geneticin (Invitrogen #10131-027) and 0.2% Zeocin (Invitrogen #R250-05). The cells are spun down and re-suspended in growth media to a concentration of 4.8 E5 cells/mL. 25 microL of cell suspension is added to each well of a BD-384-well TC treated plate, providing 12,000 cells/well. The plate is incubated at 37° C./5% CO2 overnight. On the day of the assay, the plates are removed, the media is flicked out and 25 microL of Ca-4 dye in assay buffer (HBSS, 10 mM HEPES ph 7.4), containing 2 mM probenacid is added to each well. The cell assay plates are then incubated at 37° C./5% CO2 for one hour.
Test compounds are dissolved in DMSO and diluted to 1.045 mM in DMSO. Just prior to assay, 2.75 microL of appropriately diluted test compound are added to each well of a 384 well plate containing 45 microL of HBSS buffer. After mixing, 5 microL of diluted compound are added to each well of the cell assay plate for a final assay concentration of 10 microM. The plate is incubated at room temperature for 15 min. 10 microL of IP-10 stock solution in HBSS (4× EC80 concentration) are added to each well of the cell assay plate except those cells reserved as blank wells containing buffer only. Intracellular calcium flux is recorded on the HAMAMTSU FDSS6000, using excitation at 480 nm and emission at 540 nm. Data are analyzed using Activity Base software.
In general, the preferred potency range (IC50) of compounds in the above assay is between 1 nM to 3 μM, and the most preferred potency range is 1 nM to 20 nM.

Chain of CXCR3 (A0A2K5UV19 entry or part of it): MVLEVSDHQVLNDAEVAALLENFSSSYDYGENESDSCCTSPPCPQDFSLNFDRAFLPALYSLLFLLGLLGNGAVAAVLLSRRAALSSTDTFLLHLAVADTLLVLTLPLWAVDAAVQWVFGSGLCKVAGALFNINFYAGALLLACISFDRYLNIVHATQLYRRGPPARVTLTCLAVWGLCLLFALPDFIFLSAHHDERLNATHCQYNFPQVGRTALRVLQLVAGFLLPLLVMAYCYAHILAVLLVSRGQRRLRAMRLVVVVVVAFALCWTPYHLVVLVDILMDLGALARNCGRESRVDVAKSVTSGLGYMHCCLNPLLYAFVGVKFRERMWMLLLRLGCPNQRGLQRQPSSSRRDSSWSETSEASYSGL

Row | Compound | pIC50
1 | Cc1cc(C)n(CC(=O)N2CCN(c3ccccc3C(=O)Nc3ccc(N4CCOCC4)nc3)CC2)n1 [2-{4-[2-(3,5-Dimethyl-pyrazol-1-yl)-acetyl]-piperazin-1-yl}-N-(6-morpholin-4-yl-pyridin-3-yl)-benzamide] | 7.90
2 | Cc1cc(C)n(CC(=O)N2CCN(c3ccccc3C(=O)Nc3ccc(Oc4ccccc4)nc3)CC2)n1 [2-{4-[2-(3,5-Dimethyl-pyrazol-1-yl)-acetyl]-piperazin-1-yl}-N-(6-phenoxy-pyridin-3-yl)-benzamide] | 8.00
3 | Cc1cc(C)n(CC(=O)N2CCN(c3ccccc3C(=O)Nc3ccc(-c4ccccc4)nc3)CC2)n1 [2-{4-[2-(3,5-Dimethyl-pyrazol-1-yl)-acetyl]-piperazin-1-yl}-N-(6-phenyl-pyridin-3-yl)-benzamide] | 7.94
4 | Cc1cc(C)n(CC(=O)N2CCN(c3ccccc3C(=O)Nc3ccc(C(F)(F)F)nc3)CC2)n1 [2-{4-[2-(3,5-Dimethyl-pyrazol-1-yl)-acetyl]-piperazin-1-yl}-N-(6-trifluoromethyl-pyridin-3-yl)-benzamide] | 7.96
5 | Cc1cc(C)n(CC(=O)N2CCN(c3ccccc3C(=O)Nc3ccnc(OCC(F)(F)F)c3)CC2)n1 [2-{4-[2-(3,5-Dimethyl-pyrazol-1-yl)-acetyl]-piperazin-1-yl}-N-[2-(2,2,2-trifluoro-ethoxy)-pyridin-4-yl]-benzamide] | 8.06
6 | Cc1cc(C)n(CC(=O)N2CCN(c3ccccc3C(=O)Nc3ccnc(N4CCN(C)CC4)c3)CC2)n1 [2-{4-[2-(3,5-Dimethyl-pyrazol-1-yl)-acetyl]-piperazin-1-yl}-N-[2-(4-methyl-piperazin-1-yl)-pyridin-4-yl]-benzamide] | 7.85
7 | Cc1cc(C)n(CC(=O)N2CCN(c3ccccc3C(=O)Nc3ccc4cnccc4c3)CC2)n1 [2-{4-[2-(3,5-Dimethyl-pyrazol-1-yl)-acetyl]-piperazin-1-yl}-N-isoquinolin-6-yl-benzamide] | 7.89
8 | Cc1cc(C)n(CC(=O)N2CCN(c3ccccc3C(=O)Nc3ccccc3)CC2)n1 [2-{4-[2-(3,5-Dimethyl-pyrazol-1-yl)-acetyl]-piperazin-1-yl}-N-phenyl-benzamide] | 7.89
9 | Cc1cc(C)n(CC(=O)N2CCN(c3ccccc3C(=O)Nc3ccnnc3)CC2)n1 [2-{4-[2-(3,5-Dimethyl-pyrazol-1-yl)-acetyl]-piperazin-1-yl}-N-pyridazin-4-yl-benzamide] | 7.77
10 | Cc1cc(C)n(CC(=O)N2CCN(c3ccccc3C(=O)Nc3ccc4ncccc4c3)CC2)n1 [2-{4-[2-(3,5-Dimethyl-pyrazol-1-yl)-acetyl]-piperazin-1-yl}-N-quinolin-6-yl-benzamide] | 7.94
11 | Cc1cc(C)n(CC(=O)N2CCN(c3ccccc3C(=O)Nc3nccs3)CC2)n1 [2-{4-[2-(3,5-Dimethyl-pyrazol-1-yl)-acetyl]-piperazin-1-yl}-N-thiazol-2-yl-benzamide] | 7.89
12 | CN(CC(=O)N1CCN(c2ccccc2C(=O)Nc2ccncc2)CC1)C(=O)c1ccccc1 [2-{4-[2-(Benzoyl-methyl-amino)-acetyl]-piperazin-1-yl}-N-pyridin-4-yl-benzamide] | 8.08
13 | COc1cc(NC(=O)c2ccccc2N2CCN(C(=O)Cn3nc(C)cc3C)[C@@H](C)C2)ccn1 [2-{(S)-4-[2-(3,5-Dimethyl-pyrazol-1-yl)-acetyl]-3-methyl-piperazin-1-yl}-N-(2-methoxy-pyridin-4-yl)-benzamide] | 7.68
14 | COc1ccc(C(=O)NCC(=O)N2CCN(c3ccccc3C(=O)Nc3ccccc3)CC2)cc1OC [3,4-Dimethoxy-N-{2-oxo-2-[4-(2-phenylcarbamoyl-phenyl)-piperazin-1-yl]-ethyl}-benzamide] | 8.09
15 | Cc1cc(C)n(CC(=O)N2CCCN(c3ncc(Cl)cc3NC(=O)c3cccc(Cl)c3)CC2)n1 [3-Chloro-N-(5-chloro-2-{4-[2-(3,5-dimethyl-pyrazol-1-yl)-acetyl]-[1,4]diazepan-1-yl}-pyridin-3-yl)-benzamide] | 7.82
16 | Cc1cc(C)n(CC(=O)N2CCN(c3ncc(Cl)cc3NC(=O)c3cccc(Cl)c3)CC2)n1 [3-Chloro-N-(5-chloro-2-{4-[2-(3,5-dimethyl-pyrazol-1-yl)-acetyl]-piperazin-1-yl}-pyridin-3-yl)-benzamide] | 7.94
17 | Cc1nn(CC(=O)N2CCCN(c3ncc(Cl)cc3NC(=O)c3cccc(Cl)c3)CC2)c(C)c1Cl [3-Chloro-N-(5-chloro-2-{4-[2-(4-chloro-3,5-dimethyl-pyrazol-1-yl)-acetyl]-[1,4]diazepan-1-yl}-pyridin-3-yl)-benzamide] | 7.82
18 | COc1ccc(C(=O)NCC(=O)N2CCN(c3ccccc3C(=O)Nc3cccnc3)CC2)cc1F [3-Fluoro-4-methoxy-N-(2-oxo-2-{4-[2-(pyridin-3-ylcarbamoyl)-phenyl]-piperazin-1-yl}-ethyl)-benzamide] | 7.71
19 | COc1ccc(C(=O)N(C)CC(=O)N2CCN(c3ccccc3C(=O)Nc3ccncc3)CC2)cc1F [3-Fluoro-4-methoxy-N-methyl-N-(2-oxo-2-{4-[2-(pyridin-4-ylcarbamoyl)-phenyl]-piperazin-1-yl}-ethyl)-benzamide] | 7.82

Now those with a higher pIC50, led by results:

Row | pIC50 | Compound
20 | 8.23 | COc1ccc(NC(=O)c2ccccc2N2CCN(C(=O)Cn3nc(C)cc3C)CC2)cn1 [2-{4-[2-(3,5-Dimethyl-pyrazol-1-yl)-acetyl]-piperazin-1-yl}-N-(6-methoxy-pyridin-3-yl)-benzamide]
21 | 8.28 | Cc1ccc(NC(=O)c2ccccc2N2CCN(C(=O)Cn3nc(C)cc3C)CC2)cn1 [2-{4-[2-(3,5-Dimethyl-pyrazol-1-yl)-acetyl]-piperazin-1-yl}-N-(6-methyl-pyridin-3-yl)-benzamide]
22 | 8.18 | Cc1cc(C)n(CC(=O)N2CCN(c3ccccc3C(=O)Nc3cccnc3)CC2)n1 [2-{4-[2-(3,5-Dimethyl-pyrazol-1-yl)-acetyl]-piperazin-1-yl}-N-pyridin-3-yl-benzamide]
23 | 8.33 | Cc1cc(C)n(CC(=O)N2CCN(c3ccccc3C(=O)Nc3ccncc3)CC2)n1 [2-{4-[2-(3,5-Dimethyl-pyrazol-1-yl)-acetyl]-piperazin-1-yl}-N-pyridin-4-yl-benzamide]
24 | 8.32 | Cc1cc(C)n(CC(=O)N2CCN(c3ccccc3C(=O)Nc3cnc4ccccc4c3)CC2)n1 [2-{4-[2-(3,5-Dimethyl-pyrazol-1-yl)-acetyl]-piperazin-1-yl}-N-quinolin-3-yl-benzamide]
25 | 8.40 | Cn1c(=O)n(CC(=O)N2CCN(c3ccccc3C(=O)Nc3ccncc3)CC2)c2ccccc21 [2-{4-[2-(3-Methyl-2-oxo-2,3-dihydro-benzoimidazol-1-yl)-acetyl]-piperazin-1-yl}-N-pyridin-4-yl-benzamide]
26 | 8.27 | Cc1nn(CC(=O)N2CCN(c3ccccc3C(=O)Nc3ccncc3)CC2)c(=O)c2ccccc12 [2-{4-[2-(4-Methyl-1-oxo-1H-phthalazin-2-yl)-acetyl]-piperazin-1-yl}-N-pyridin-4-yl-benzamide]
27 | 8.47 | O=C(Nc1ccncc1)c1ccccc1N1CCN(C(=O)Cn2cnc3ccccc3c2=O)CC1 [2-{4-[2-(4-Oxo-4H-quinazolin-3-yl)-acetyl]-piperazin-1-yl}-N-pyridin-4-yl-benzamide]
28 | 8.34 | COc1ccc(C(=O)NCC(=O)N2CCN(c3ccccc3C(=O)Nc3ccncc3)CC2)cc1OC [3,4-Dimethoxy-N-(2-oxo-2-{4-[2-(pyridin-4-ylcarbamoyl)-phenyl]-piperazin-1-yl}-ethyl)-benzamide]
29 | 8.38 | Cc1cc(C)n(CC(=O)N2CCN(c3ccccc3NC(=O)c3cccc(Cl)c3)CC2)n1 [3-Chloro-N-(2-{4-[2-(3,5-dimethyl-pyrazol-1-yl)-acetyl]-piperazin-1-yl}-phenyl)-benzamide]
30 | 8.15 | Cc1cc(C)n(CC(=O)N2CC=C(c3ccc(Cl)cc3NC(=O)c3cccc(Cl)c3)CC2)n1 [3-Chloro-N-(5-chloro-2-{1-[2-(3,5-dimethyl-pyrazol-1-yl)-acetyl]-1,2,3,6-tetrahydro-pyridin-4-yl}-phenyl)-benzamide]
31 | 8.11 | O=C(Nc1cc(Cl)cnc1N1CCN(C(=O)CN2CCCCC2=O)CC1)c1cccc(Cl)c1 [3-Chloro-N-(5-chloro-2-{4-[2-(2-oxo-piperidin-1-yl)-acetyl]-piperazin-1-yl}-pyridin-3-yl)-benzamide]
32 | 8.52 | O=C(Nc1cc(Cl)cnc1N1CCCN(C(=O)CN2CCCCC2)CC1)c1cccc(Cl)c1 [3-Chloro-N-{5-chloro-2-[4-(2-piperidin-1-yl-acetyl)-[1,4]diazepan-1-yl]-pyridin-3-yl}-benzamide]
33 | 8.38 | COc1ccc(C(=O)NCC(=O)N2CCN(c3ccccc3C(=O)Nc3ccncc3)CC2)cc1F [3-Fluoro-4-methoxy-N-(2-oxo-2-{4-[2-(pyridin-4-ylcarbamoyl)-phenyl]-piperazin-1-yl}-ethyl)-benzamide]
34 | 8.33 | Cc1cc(C)n(CC(=O)N2CCN(c3ccccc3NC(=O)c3ccc(Cl)cc3)CC2)n1 [4-Chloro-N-(2-{4-[2-(3,5-dimethyl-pyrazol-1-yl)-acetyl]-piperazin-1-yl}-phenyl)-benzamide]

From patent publication US8362249B2, “CXCR3 receptor antagonists” (Boehringer Ingelheim International GmbH, priority 2009, dated 2013)
